Results published in patent publication US20240132489A1, “AROMATIC HETEROCYCLIC COMPOUND, PHARMACEUTICAL COMPOSITION, AND USE THEREOF” (GT APEIRON THERAPEUTICS LIMITED, priority 2020, published 2024).

Legend:
CDK9/CyclinT1 = CDK9/CyclinT1 (Homo sapiens (Human), UniProt P50750); assay: In vitro enzymatic inhibitory activity test, CDK9; type: biochemical; details: Caliper mobility shift, 180 min at 27° C.
Description: (§1) CDK7/CyclinH was diluted in a test buffer solution (20 mM MES PH6.75, 0.01% Tween20, 50 ug/mL BSA, 6 mM MgCl2) to obtain a corresponding enzyme solution with a 2.4× concentration. CDK2/CyclinE1 was diluted in a test buffer solution (20 mM MES PH6.75, 0.01% Tween20, 50 ug/mL BSA, 6 mM MgCl2) to obtain a corresponding enzyme solution with a 2.4× concentration. CDK9/CyclinT1 was diluted in a test buffer solution (20 mM MES PH6.75, 0.01% Tween20, 50 ug/mL BSA, 10 mM MgCl2) to obtain a corresponding enzyme solution with a 2.4× concentration. CDK12/CyclinK was diluted in a test buffer solution (80 mM MES PH6.5, 0.01% Tween20, 50 ug/mL BSA, 10 mM MgCl2) to obtain a corresponding enzyme solution with a 2.4× concentration. The compounds were dissolved in dimethyl sulfoxide (DMSO) at a concentration of 10 mM. […] 2 ul of a test compound solution was mixed with 5 ul of enzyme solution. After incubating for 10 min, 5 ul of the mixed solution of the polypeptide substrate and ATP was added. After incubating at 27° C. for 180 min, 4 uL of EDTA with a 120 mM concentration was added to each sample to stop the reaction. […] A CDK9/cyclin TI complex (8 nM) and a “5-FAM-CDK9tide” peptide substrate (2 μM, synthetic fluorophore labeled peptide having the following sequence: 5-FAM-GSRTPMY-NH2, where 5-FAM was as defined above, and NH2 represented C-terminal amide) were used for testing the CDK9 inhibition. […] A CDK2/cyclin E1 complex (0.5 nM) and the “5-FAM-CDK7tide” (2 μM) as defined above were used for testing the CDK2 inhibition.
(§2) Electrophoretic separation was performed on Caliper EZ Reader II by means of a fluorogenic substrate and a phosphorylated product to analyze the reaction mixture. Data were calculated by using GraphPad Prism version 6.0. IC50 values were adjusted by means of a nonlinear regression model using a dose-response curve.

HCC70 cells = assay: Cell bioactivity detection (CyQuant), HCC70; type: cell-based; details: Homo sapiens, HCC70, 72 h, human breast cancer cells HCC70, 72 hours
Description: (§3) Trypsinization was performed on A2780 and HCC70 cells. Cell suspensions were respectively transferred to 15 mL of centrifuge tubes and centrifuged at 800 rpm for 5 min. The supernatant was discarded. Resuspension in a fresh culture medium (RPMI 1640+10% FBS) was performed. After counting, the cells were inoculated at 2000/well in a 384-well plate (50 φL of 1640+10% FBS culture medium was added to the 2nd line and the 23rd line of the 384-well plate, and 50 μL of DPBS was added to surrounding wells). Incubation in an incubator (37° C., 5% CO2) was performed overnight.
(§4) The compound was added to the well plate the next day. The compound had the highest concentration of 10 μM and was diluted at the ratio of 1:4 to form 9 concentrations. The positive compound Paclitaxel had the highest concentration of 1 μM and was diluted at the ratio of 1:3 to form 9 concentrations. The DMSO content of each well was unified to 0.2%. A cell plate was centrifuged at 800 rpm for 30 seconds. Incubation for 72 hours in an incubator (37° C., 5% CO2) was performed. On the fourth day, a Cyquant reagent (3×) was prepared according to kit instructions. Each 384-well plate was prepared in the following proportions: DPBS: 11.568 mL, CyQuant® Direct nucleic acid stain: 72 μL, CyQuant® Direct background suppressor: 360 ILL. The plates were uniformly mixed and placed for standby application at room temperature. The cell plate was taken out and placed at room temperature to be balanced for 30 min. 25 μL of Cyquant reagent (3×) was dispensed to the cells in each well of the 384-well plates by using a Multi-drop dispenser. Incubation at 37° C. for 60 or more minutes was performed. The plates were read by Acumen (Acumen was configured to have a 488 nm excitation wavelength). IC50 results were analyzed by XLFIT5 of the IDBS company.

A2780 cells = assay: Cell bioactivity detection (CyQuant), A2780; type: cell-based, human; details: Homo sapiens, A2780, 72 h, ovarian carcinoma cells A2780, 72 hours
Description: as §3, §4

[1] = target: CDK12(aa686-1082)/cyclin K complex (Homo sapiens (Human), UniProt Q9NYV4); assay: In vitro enzymatic inhibitory activity test, CDK12; type: biochemical; details: Caliper mobility shift, 180 min at 27° C.
Description: as §1, §2

CDK2/cyclin E1 complex = CDK2/cyclin E1 complex (Homo sapiens (Human), UniProt P24941); assay: In vitro enzymatic inhibitory activity test, CDK2; type: biochemical; details: Caliper mobility shift, 180 min at 27° C.
Description: CDK7/CyclinH was diluted in a test buffer solution (20 mM MES PH6.75, 0.01% Tween20, 50 ug/mL BSA, 6 mM MgCl2) to obtain a corresponding enzyme solution with a 2.4× concentration. CDK2/CyclinE1 was diluted in a test buffer solution (20 mM MES PH6.75, 0.01% Tween20, 50 ug/mL BSA, 6 mM MgCl2) to obtain a corresponding enzyme solution with a 2.4× concentration. CDK9/CyclinT1 was diluted in a test buffer solution (20 mM MES PH6.75, 0.01% Tween20, 50 ug/mL BSA, 10 mM MgCl2) to obtain a corresponding enzyme solution with a 2.4× concentration. CDK12/CyclinK was diluted in a test buffer solution (80 mM MES PH6.5, 0.01% Tween20, 50 ug/mL BSA, 10 mM MgCl2) to obtain a corresponding enzyme solution with a 2.4× concentration. […] 2 ul of a test compound solution was mixed with 5 ul of enzyme solution. After incubating for 10 min, 5 ul of the mixed solution of the polypeptide substrate and ATP was added. After incubating at 27° C. for 180 min, 4 uL of EDTA with a 120 mM concentration was added to each sample to stop the reaction. […] A CDK9/cyclin TI complex (8 nM) and a “5-FAM-CDK9tide” peptide substrate (2 μM, synthetic fluorophore labeled peptide having the following sequence: 5-FAM-GSRTPMY-NH2, where 5-FAM was as defined above, and NH2 represented C-terminal amide) were used for testing the CDK9 inhibition. […] A CDK2/cyclin E1 complex (0.5 nM) and the “5-FAM-CDK7tide” (2 μM) as defined above were used for testing the CDK2 inhibition.
as §2

[2] = target: CDK7/cyclin H/MAT1 complex (Homo sapiens (Human), UniProt P50613); assay: In vitro enzymatic inhibitory activity test, CDK7; type: biochemical; details: Caliper mobility shift, 180 min at 27° C.
Description: as §1, §2

Sequence of CDK7/cyclin H/MAT1 complex (P50613 whole entry, species assumed): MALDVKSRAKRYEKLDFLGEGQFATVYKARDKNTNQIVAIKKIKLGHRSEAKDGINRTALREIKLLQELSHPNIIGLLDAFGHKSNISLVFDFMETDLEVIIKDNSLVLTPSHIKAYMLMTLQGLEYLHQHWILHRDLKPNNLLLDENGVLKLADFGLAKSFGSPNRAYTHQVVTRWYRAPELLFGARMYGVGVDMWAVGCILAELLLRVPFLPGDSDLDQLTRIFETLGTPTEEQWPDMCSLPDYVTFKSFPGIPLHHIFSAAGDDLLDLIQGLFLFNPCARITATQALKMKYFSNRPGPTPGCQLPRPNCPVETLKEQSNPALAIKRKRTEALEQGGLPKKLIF
Sequence of CDK7/cyclin H/MAT1 complex (P51946 whole entry partner, species assumed): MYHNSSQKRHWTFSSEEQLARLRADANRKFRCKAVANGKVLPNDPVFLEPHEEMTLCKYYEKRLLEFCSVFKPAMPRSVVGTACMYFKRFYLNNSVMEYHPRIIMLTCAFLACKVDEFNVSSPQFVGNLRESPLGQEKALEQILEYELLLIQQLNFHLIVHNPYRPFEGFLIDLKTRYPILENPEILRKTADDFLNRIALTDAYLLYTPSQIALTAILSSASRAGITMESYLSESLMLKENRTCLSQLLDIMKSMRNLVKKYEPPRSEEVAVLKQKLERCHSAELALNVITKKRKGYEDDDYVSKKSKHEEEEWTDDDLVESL
Sequence of CDK7/cyclin H/MAT1 complex (P51948 whole entry partner, species assumed): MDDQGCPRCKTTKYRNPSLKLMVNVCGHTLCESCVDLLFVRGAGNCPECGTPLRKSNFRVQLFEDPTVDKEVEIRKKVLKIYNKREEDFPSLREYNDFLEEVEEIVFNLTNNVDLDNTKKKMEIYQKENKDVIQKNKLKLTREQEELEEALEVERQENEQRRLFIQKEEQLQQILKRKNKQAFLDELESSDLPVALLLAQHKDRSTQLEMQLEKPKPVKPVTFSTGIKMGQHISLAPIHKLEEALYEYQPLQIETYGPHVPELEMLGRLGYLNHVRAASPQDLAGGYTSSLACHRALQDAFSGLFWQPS
Sequence of CDK9/CyclinT1 (P50750 whole entry, species assumed): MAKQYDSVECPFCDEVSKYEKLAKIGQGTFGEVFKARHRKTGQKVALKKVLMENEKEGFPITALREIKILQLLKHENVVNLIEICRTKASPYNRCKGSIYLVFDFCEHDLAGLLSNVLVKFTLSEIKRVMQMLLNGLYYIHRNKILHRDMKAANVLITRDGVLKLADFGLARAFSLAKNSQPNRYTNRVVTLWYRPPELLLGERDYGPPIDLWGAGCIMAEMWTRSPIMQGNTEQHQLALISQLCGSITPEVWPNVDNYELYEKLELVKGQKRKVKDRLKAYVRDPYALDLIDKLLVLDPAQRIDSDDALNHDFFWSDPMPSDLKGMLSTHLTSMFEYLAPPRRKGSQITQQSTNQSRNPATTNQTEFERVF
Sequence of CDK9/CyclinT1 (O60563 whole entry partner, species assumed): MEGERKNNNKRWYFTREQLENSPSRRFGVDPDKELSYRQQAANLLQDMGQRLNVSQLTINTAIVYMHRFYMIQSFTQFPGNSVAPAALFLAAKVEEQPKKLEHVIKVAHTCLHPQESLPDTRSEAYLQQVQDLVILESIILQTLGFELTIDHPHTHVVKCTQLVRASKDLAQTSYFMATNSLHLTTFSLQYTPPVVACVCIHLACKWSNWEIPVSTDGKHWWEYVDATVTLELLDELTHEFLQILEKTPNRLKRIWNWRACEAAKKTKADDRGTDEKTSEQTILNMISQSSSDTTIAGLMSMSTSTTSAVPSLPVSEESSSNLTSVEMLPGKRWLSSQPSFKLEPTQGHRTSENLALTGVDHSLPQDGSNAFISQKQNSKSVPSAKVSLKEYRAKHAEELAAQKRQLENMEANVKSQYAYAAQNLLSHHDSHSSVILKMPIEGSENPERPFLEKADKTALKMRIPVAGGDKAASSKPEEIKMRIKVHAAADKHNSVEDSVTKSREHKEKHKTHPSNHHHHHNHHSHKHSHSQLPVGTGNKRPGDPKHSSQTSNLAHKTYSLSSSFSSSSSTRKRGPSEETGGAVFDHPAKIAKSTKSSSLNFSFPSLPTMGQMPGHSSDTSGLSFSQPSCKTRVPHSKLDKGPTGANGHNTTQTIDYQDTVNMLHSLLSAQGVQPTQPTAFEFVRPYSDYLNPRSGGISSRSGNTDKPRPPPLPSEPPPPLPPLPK
Sequence of CDK12(aa686-1082)/cyclin K complex (Q9NYV4 686-1082, species assumed): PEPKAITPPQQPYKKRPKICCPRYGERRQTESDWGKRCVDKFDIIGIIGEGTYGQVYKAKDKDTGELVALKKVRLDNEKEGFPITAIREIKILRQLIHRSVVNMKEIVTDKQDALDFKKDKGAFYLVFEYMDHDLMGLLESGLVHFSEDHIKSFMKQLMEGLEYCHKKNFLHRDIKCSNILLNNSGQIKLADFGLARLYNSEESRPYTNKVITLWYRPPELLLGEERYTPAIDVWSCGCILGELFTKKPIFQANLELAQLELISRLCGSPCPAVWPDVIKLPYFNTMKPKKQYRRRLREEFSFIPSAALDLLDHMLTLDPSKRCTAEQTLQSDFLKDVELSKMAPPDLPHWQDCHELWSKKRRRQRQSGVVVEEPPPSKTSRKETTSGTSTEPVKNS
Sequence of CDK12(aa686-1082)/cyclin K complex (O75909 whole entry partner, species assumed, the tested form may be a part): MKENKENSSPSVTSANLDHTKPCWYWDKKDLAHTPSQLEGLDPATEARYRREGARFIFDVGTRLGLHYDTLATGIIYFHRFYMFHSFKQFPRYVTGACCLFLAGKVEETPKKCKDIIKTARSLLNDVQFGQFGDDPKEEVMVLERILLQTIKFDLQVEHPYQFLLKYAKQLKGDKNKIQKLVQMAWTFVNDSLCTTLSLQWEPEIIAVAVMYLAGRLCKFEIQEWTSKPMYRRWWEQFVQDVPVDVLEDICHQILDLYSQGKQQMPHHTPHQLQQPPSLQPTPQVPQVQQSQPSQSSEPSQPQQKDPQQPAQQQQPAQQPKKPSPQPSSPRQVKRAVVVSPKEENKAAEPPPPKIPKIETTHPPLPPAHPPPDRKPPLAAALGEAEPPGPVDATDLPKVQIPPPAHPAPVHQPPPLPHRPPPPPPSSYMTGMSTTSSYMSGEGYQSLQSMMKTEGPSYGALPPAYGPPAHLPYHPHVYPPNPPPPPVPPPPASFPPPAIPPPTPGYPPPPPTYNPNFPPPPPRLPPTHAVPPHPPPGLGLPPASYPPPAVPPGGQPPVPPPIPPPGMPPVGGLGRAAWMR

Row | SMILES | IC50 (CDK9/CyclinT1) | IC50 (A2780 cells) | IC50 [1] | IC50 (CDK2/cyclin E1 complex) | IC50 [2] | IC50 (HCC70 cells)
1 | FC(F)(F)c1cnc(N[C@H]2CCCNC2)nc1-c1c[nH]c2nc(N3CCCC4(CCOCC4)C3)ccc12 [Compound 10, (S)-4-(6-(9-oxa-2-azaspiro[5.5]undecan-2-yl)-1H-pyrrolo[2,3-b]pyridin-3-yl)-N-(piperidin-3-yl)-5-(trifluoromethyl)pyrimidine-2-amine] | 4010 nM | 109 nM | 823 nM | 2090 nM | 27 nM | 102 nM
2 | FC(F)(F)c1cnc(N[C@H]2CCCNC2)nc1-c1c[nH]c2nc(N3CC4(CCOC4)C3)ccc12 [Compound 11, (S)-4-(6-(6-oxa-2-azaspiro[3.4]octan-2-yl)-1H-pyrrolo[2,3-b]pyridin-3-yl)-N-(piperidin-3-yl)-5-(trifluoromethyl)pyrimidine-2-amine] | 4230 nM | 41.2 nM | 1950 nM | 6450 nM | 27.8 nM | 48 nM
3 | C[C@@H]1OCC2(CCN(c3ccc4c(-c5nc(N[C@H]6CCCNC6)ncc5C(F)(F)F)c[nH]c4n3)CC2)[C@@H]1N [Compound 12, (3S,4S)-3-methyl-8-(3-(2-(((S)-piperidin-3-yl)amino)-5-(trifluoromethyl)pyrimidin-4-yl)-1H-pyrrol[2,3-b]pyridin-6-yl)-2-oxa-8-azaspiro[4.5]decan-4-amine] | 2790 nM | 90.1 nM | 1170 nM | 3790 nM | 17.4 nM | 69 nM
4 | FC(F)(F)c1cnc(N[C@H]2CCCNC2)nc1-c1c[nH]c2nc(N3CCC4(CC3)COC4)ccc12 [Compound 15, (S)-4-(6-(2-oxa-7-azaspiro[3.5]nonan-7-yl)-1H-pyrrolo[2,3-b]pyridin-3-yl)-N-(piperidin-3-yl)-5-(trifluoromethyl)pyrimidine-2-amine] | 3320 nM | 10 nM | 1120 nM | 4150 nM | 16.5 nM | 12 nM
5 | FC(F)(F)c1cnc(N[C@H]2CCCNC2)nc1-c1c[nH]c2nc(N3CCC4(CCO4)CC3)ccc12 [Compound 16, (S)-4-(6-(1-oxa-7-azaspiro[3.5]nonan-7-yl)-1H-pyrrolo[2,3-b]pyridin-3-yl)-N-(piperidin-3-yl)-5-(trifluoromethyl)pyrimidine-2-amine] | 3580 nM | 11 nM | 1230 nM | 2880 nM | 10.8 nM | 13 nM
6 | FC(F)(F)c1cnc(N[C@H]2CCCNC2)nc1-c1c[nH]c2nc(N3CC4(CCCOC4)C3)ccc12 [Compound 17, (S)-4-(6-(6-oxa-2-azaspiro[3.5]nonan-2-yl)-1H-pyrrolo[2,3-b]pyridin-3-yl)-N-(piperidin-3-yl)-5-(trifluoromethyl)pyrimidine-2-amine] | 4250 nM | 212 nM | 1630 nM | 5480 nM | 20 nM | 102 nM
7 | N#CC1CCN(c2ccc3c(-c4nc(N[C@H]5CCCNC5)ncc4C(F)(F)F)c[nH]c3n2)CC1 [Compound 20, (S)-1-(3-(2-(piperidine-3-amino)-5-(trifluoromethyl)pyrimidin-4-yl)-1H-pyrrolo[2,3-b]pyridin-6-yl)piperidine-4-nitrile] | 2970 nM | 8.3 nM | 765 nM | 3280 nM | 8.43 nM | 13.7 nM
8 | CC1(C#N)CN(c2ccc3c(-c4nc(N[C@H]5CCCNC5)ncc4C(F)(F)F)c[nH]c3n2)C1 [Compound 21, (S)-3-methyl-1-(3-(2-(piperidine-3-amino)-5-(trifluoromethyl)pyrimidin-4-yl)-1H-pyrrolo[2,3-b]pyridin-6-yl)azetidine-3-formonitrile] | 2980 nM | 19 nM | 818 nM | 4330 nM | 8.81 nM | 27.8 nM

Now from value to molecule, other results behind:

Row | IC50 (CDK9/CyclinT1) | IC50 (A2780 cells) | IC50 [1] | IC50 (CDK2/cyclin E1 complex) | IC50 [2] | SMILES | IC50 (HCC70 cells)
9 | 3430 nM | 35.2 nM | 2640 nM | 2670 nM | 7.05 nM | FC(F)(F)c1cnc(N[C@H]2CCCNC2)nc1-c1c[nH]c2nc(N3C[C@@H]4C[C@H]3CO4)ccc12 [Compound 13, 4-(6-((1S,4S)-2-oxa-5-azabicyclo[2.2.1]heptan-5-yl)-1H-pyrrolo[2,3-b]pyridin-3-yl)-N—((S)-piperidin-3-yl)-5-(trifluoromethyl)pyrimidine-2-amine] | 29 nM
10 | 1670 nM | 11 nM | 555 nM | 3290 nM | 7.11 nM | FC(F)(F)c1cnc(N[C@H]2CCCNC2)nc1-c1c[nH]c2nc(N3CC4(COC4)C3)ccc12 [Compound 14, (S)-4-(6-(2-oxa-6-azaspiro[3.3]heptan-6-yl)-1H-pyrrolo[2,3-b]pyridin-3-yl)-N-(piperidin-3-yl)-5-(trifluoromethyl)pyrimidine-2-amine] | 24 nM
11 | 2870 nM | 7.2 nM | 2290 nM | 6560 nM | 9.47 nM | C[C@H]1COCCN1c1ccc2c(-c3nc(N[C@H]4CCCNC4)ncc3C(F)(F)F)c[nH]c2n1 [Compound 18, 4-(6-((S)-3-methylmorpholinyl)-1H-pyrrolo[2,3-b]pyridin-3-yl)-N—((S)-piperidin-3-yl)-5-(trifluoromethyl)pyrimidine-2-amine] | 6.7 nM
12 | > 10000 nM | 185 nM | 8720 nM | > 10000 nM | 159 nM | C[C@@H]1COCCN1c1ccc2c(-c3nc(N[C@H]4CCCNC4)ncc3C(F)(F)F)c[nH]c2n1 [Compound 19, 4-(6-((R)-3-methylmorpholinyl)-1H-pyrrolo[2,3-b]pyridin-3-yl)-N—((S)-piperidin-3-yl)-5-(trifluoromethyl)pyrimidine-2-amine] | 220 nM
